The test system of this test is IMR32 human neuroblastoma cells. Put plainly: Inhibition of the formation of toxic aggregates of beta-amyloid 1-40 peptide (MTT reduction in IMR32 cells). It counts as cell-based.

Experimental: Determination of the Inhibition of the Formation of Toxic Aggregates of Beta-Amyloid 1-40 Peptide
Beta-amyloid (1-40) peptide from Bachem UK was dissolved in 0.1% acetic acid at 2 mg/ml and further diluted to 55 ug/ml in phosphate buffered saline (Sigma P4417) containing 0.02% Tween 20 (PBS-Tween). Candidate inhibitors were dissolved in DMSO at 10 mg/ml and further diluted in PBS-Tween. For each candidate inhibitor, 45 ul of 55 ug/ml peptide solution was incubated with 5 ul of appropriately diluted inhibitor overnight at 37° C. in Linbro Titertek EIA II shallow well plates (ICN, EIA II Microplates, cat no. 76-181-04). Plates were sealed with Dynatech Labs (cat # 001-010 3501) plate sealers.
MTT (3(4,5-dimethylthiazol-2-yl)-2,5-diphenyl tetrazolium bromide—Sigma) is a metabolic dye taken up by the mitochondria of viable cells and metabolised, yielding a blue formazan crystalline product. […]
For the assessment of toxicity, IMR32 human neuroblastoma cells (ECACC, Porton Down, UK) were plated at 6×10^4 cells/cm^2 in a 96 well microtitre plate (Nunc) in a volume of 100 ul growth medium (DMEM:Hams F12 1:1) per well and incubated for 2 h (CO2 incubator, 37° C.). […] Plates were read at 590 nm and inhibition of toxicity assessed as the difference in OD reading between cells in the presence and absence of candidate inhibitors. […]

Take `COc1ccccc1OCCNCC(O)COc1cccc2[nH]c3ccccc3c12` (centres unmarked) [carvedilol]: the “shift of the beta-amyloid 1-40 concentration-response curve (decrease in MTT reduction)” value (50 ug/ml beta-amyloid 1-40 incubated overnight with 50 ug/ml carvedilol, cells challenged with 0 to 10 ng/ml beta-amyloid 1-40) is recorded as “marked shift to the right”. Also, the “decrease in MTT reduction” value (50 ug/ml carvedilol during the aggregation step, 0.1 to 1 ng/ml of peptide on IMR32 cells) was “no decrease in MTT reduction was observed”.
